IC50 data for two compounds are collected here from ChEMBL document CHEMBL5532655, “Discovery of (R)-4-(8-methoxy-2-methyl-1-(1-phenylethy)-1H-imidazo[4,5-c]quinnolin-7-yl)-3,5-dimethylisoxazole as a potent and selective BET inhibitor for treatment of acute myeloid leukemia (AML) guided by FEP calculation” (Eur J Med Chem, 2024).

Holding throughout (assay): cells
One test relates to MV4-11. Conditions: Homo sapiens, MV4-11, 48 h.
A further test concerns MOLM-13. Particulars: Homo sapiens, MOLM-13, 48 h.
The next test has as its system Jurkat. Conditions: Homo sapiens, 48 h.
The subject of the next test is MM1.S. Conditions: Homo sapiens, 48 h.

Description for Jurkat: Antiproliferative activity against human Jurkat cells assessed as inhibition of cell growth incubated for 48 hrs by MTT assay
Description for MM1.S: Antiproliferative activity against human MM1.S cells assessed as inhibition of cell growth incubated for 48 hrs by MTT assay
Description for MOLM-13: Antiproliferative activity against human MOLM-13 cells assessed as inhibition of cell growth incubated for 48 hrs by MTT assay
Description for MV4-11: Antiproliferative activity against human MV4-11 cells assessed as inhibition of cell growth incubated for 48 hrs by MTT assay

As to `COc1cc2c(cc1-c1ccc(N)cc1)ncc1nc(C)n([C@@H](C)c3ccccc3)c12`, the IC50 was 3.25 µM in the test with MV4-11, 7.16 µM in the test with MOLM-13, 11.1 µM in the test with Jurkat and 4.04 µM in the test with MM1.S.
As to `COc1cc2c(cc1-c1cnn(C)c1)ncc1nc(C)n([C@@H](C)c3ccccc3)c12`, the IC50 is 0.62 µM in the test with MV4-11, greater than 20 µM in the test on MOLM-13, 2.14 µM in the test on Jurkat and 11.5 µM in the test on MM1.S.
